From ChEMBL document CHEMBL1201862, “PubChem BioAssay data set” (2004)
Active and inactive are the calls of the source.

Columns and labels:
[1] = YAP1 pathway inhibition via CTGF transcript levels, dose response, cell-based, DLD1 colon cancer, RT-qPCR, cherry-pick (AID 1053122); assay type: functional; settings: Cancer cell lines
[2] = biological target: Endoplasmic reticulum aminopeptidase 1 (Homo sapiens, UniProt Q9NZ08); experiment: ERAP1 aminopeptidase inhibitors, dose response, biochemical, cherry-pick, set 2, plate reader (AID 743314)
[3] = biological target: Peroxisome proliferator-activated receptor gamma/Nuclear receptor coactivator 1 (Homo sapiens, UniProt P37231); experiment: (§1) TR-FRET dose response biochemical High Throughput Screening assay for agonists of the steroid receptor coactivator 1 (SRC-1) recruitment by the peroxisome proliferator-activated receptor gamma (PPAR gamma): non-selective agonists. [Related pubchem assays (depositor defined):AID1300, AID1808, AID504735, AID631]; assay type: protein assay
[4] = biological target: Peroxisome proliferator-activated receptor gamma/Nuclear receptor coactivator 3 (Homo sapiens, UniProt P37231); experiment: as §1, with “3 (SRC-3)” for “1 (SRC-1)”, “assays: 1301 (Confirmation screen.), 1048 (Primary screen.)]” for “assays (depositor defined):AID1300, AID1808, AID504735, AID631]”; assay type: functional
[5] = biological target: Peroxisome proliferator-activated receptor gamma/Nuclear receptor coactivator 2 (Homo sapiens, UniProt P37231); experiment: TR-FRET dose response biochemical High Throughput Screening assay for agonists of the steroid receptor coactivator 2 (SRC-2) recruitment by the peroxisome proliferator-activated receptor gamma (PPAR gamma): non-selective agonists. [Related pubchem assays: 1297, 1032 ]; assay type: functional
[6] = LGR2 antagonists, dose response, cell-based, HEK293, CRE-luciferase reporter, cherry pick, set 2 (AID 743343); assay type: functional;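 also: transfected cells were stimulated with diluted bursicon conditioned medium after compound addition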
[7] = MC4R antagonists, dose response, counter-screen for LGR2 antagonist project, cell-based, plate reader, cherry pick (AID 743444); assay type: functional;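 also: transfected HEK 293 cells stimulated with alpha-MSH peptide; potency of inhibitors of the alpha-MSH evoked signal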
[8] = inhibitors of intracellular T. cruzi replication, confirmation, NIH3T3 host cells, beta-gal luminescence (AID 2044); assay type: functional, cell-based;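 also: intracellular parasites grown in NIH/3T3 mouse fibroblasts as host cells; luminescent beta-galactosidase reporter signal from transgenic T. cruzi replicating inside host cells; inhibitors lower the luminescence signal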
[9] = cytotoxicity toward NIH3T3 fibroblasts, dose response, counter-screen, cell-based, ATP luminescence, mouse fibroblasts (AID 2010); assay type: functional;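 also: cells exposed to compound for about 90 hours before reading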
[10] = biological target: DNA dC->dU-editing enzyme APOBEC-3A (Homo sapiens, UniProt P31941); experiment: Dose Response confirmation of small molecule APOBEC3A DNA Deaminase Inhibitors via a fluorescence-based single-stranded DNA deaminase assay. [Related pubchem assays (depositor defined):AID493011, AID493024]; assay type: functional
[11] = biological target: DNA dC->dU-editing enzyme APOBEC-3G (Homo sapiens, UniProt Q9HC16); assay type: functional;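 also: Dose-response counterscreen measuring inhibition of APOBEC3G DNA deaminase activity, run while confirming APOBEC3A inhibitors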
Galanin receptor type 3 = Galanin receptor type 3 (Homo sapiens, UniProt O60755); experiment: Fluorescence-based cell-based primary high throughput dose response assay to identify antagonists of the Galanin Receptor 3 (GalR3).; assay type: functional
cells [12] = assay type: functional, cell-based; settings: HEK-CNG
[13] = biological target: T1, Low molecular weight phosphotyrosine protein phosphatase (Homo sapiens, UniProt P24666); assay type: functional; settings: read-out: IC50_Mean
T1 sequence (P24666 whole entry): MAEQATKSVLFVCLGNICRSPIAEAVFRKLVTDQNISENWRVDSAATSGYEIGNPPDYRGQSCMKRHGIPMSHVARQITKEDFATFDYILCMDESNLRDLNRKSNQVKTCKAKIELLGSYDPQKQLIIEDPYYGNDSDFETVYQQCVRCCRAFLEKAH

[14] = biological target: T1, Low molecular weight phosphotyrosine protein phosphatase; assay type: functional; settings: read-out: IC50_Mean; remark: listed apart in the source
[15] = HEp-2 cell cytotoxicity, dose response, cytotoxicity control for RSV inhibitor project, HTS (AID 2410); assay type: functional; settings: human respiratory syncytial virus
[16] = inhibitors of firefly luciferase expression or activity, dose response, H4 neuroglioma cells, luminescence (AID 1990); assay type: functional, cell-based
[17] = Luminescence Cell-Based Dose Response HTS to Identify Inhibitors of 5'UTR Stem-Loop Driven Prion Protein mRNA Translation in H4 Neuroglioblastoma Cells. [Related pubchem assays: 1827 (Project Summary), 1813 (Primary HTS)]; assay type: functional
[18] = inhibitors of SNCA 5'UTR-driven reporter translation, confirmation, H4 neuroglioma cells, luminescence (AID 1988); assay type: functional, cell-based
Vero = experiment: cells; assay type: functional, cell-based; settings: Chlorocebus sabaeus
cells [19] = assay type: functional, cell-based
[20] = biological target: T2, Nuclear receptor subfamily 0 group B member 1 (Homo sapiens, UniProt P51843); assay type: functional, cell-based;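 also: HEK293T cells transfected with SF-1 and DAX-1 plus StAR promoter luciferase reporter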
T2 sequence (P51843 whole entry): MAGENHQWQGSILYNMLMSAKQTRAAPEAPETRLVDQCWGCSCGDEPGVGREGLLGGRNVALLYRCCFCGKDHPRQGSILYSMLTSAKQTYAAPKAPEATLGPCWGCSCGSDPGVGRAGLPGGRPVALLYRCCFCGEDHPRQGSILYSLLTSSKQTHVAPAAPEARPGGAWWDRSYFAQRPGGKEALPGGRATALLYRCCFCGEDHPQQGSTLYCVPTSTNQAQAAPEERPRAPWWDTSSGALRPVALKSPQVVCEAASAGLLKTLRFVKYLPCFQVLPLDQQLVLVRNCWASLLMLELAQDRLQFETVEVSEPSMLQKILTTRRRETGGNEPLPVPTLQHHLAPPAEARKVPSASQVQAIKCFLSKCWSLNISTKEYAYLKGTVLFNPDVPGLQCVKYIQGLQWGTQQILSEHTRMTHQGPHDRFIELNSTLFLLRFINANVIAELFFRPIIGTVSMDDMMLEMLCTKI

cells [21] = experiment: cells
[22] = biological target: T3, Heat shock factor protein 1 (Mus musculus, UniProt P38532); experiment: inhibition of MG132-induced HSE-luciferase signal, confirmation, cell-based, NIH3T3, luminescence, dose retest (AID 2382); assay type: functional;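 also: NIH3T3 fibroblasts with HSF1-driven luciferase reporter stressed by proteasome inhibitor MG132; luminescence from HSF1-driven luciferase expression after 8 hours of MG132 stress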
T3 sequence (P38532 whole entry): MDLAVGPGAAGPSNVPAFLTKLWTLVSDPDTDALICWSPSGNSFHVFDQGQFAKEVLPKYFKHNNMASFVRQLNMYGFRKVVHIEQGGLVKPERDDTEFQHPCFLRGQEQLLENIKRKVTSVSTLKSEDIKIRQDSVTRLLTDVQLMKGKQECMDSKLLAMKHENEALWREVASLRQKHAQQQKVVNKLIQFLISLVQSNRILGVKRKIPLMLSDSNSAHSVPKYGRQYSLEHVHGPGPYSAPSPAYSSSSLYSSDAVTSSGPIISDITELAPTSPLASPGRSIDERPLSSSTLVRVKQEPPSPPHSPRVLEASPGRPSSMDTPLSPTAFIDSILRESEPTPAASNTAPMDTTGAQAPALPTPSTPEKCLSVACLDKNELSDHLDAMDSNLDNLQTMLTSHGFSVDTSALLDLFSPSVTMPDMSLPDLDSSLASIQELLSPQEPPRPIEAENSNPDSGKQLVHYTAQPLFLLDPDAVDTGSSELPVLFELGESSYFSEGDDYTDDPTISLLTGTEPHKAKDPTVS

[23] = biological target: Nuclear receptor subfamily 5 group A member 2 (Homo sapiens, UniProt O00482); assay type: functional, cell-based;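 also: HEK293T cells transfected with LRH-1 and a StAR promoter luciferase reporter; potency for inhibitors that lower LRH-1 driven reporter light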
Steroidogenic factor 1 = Steroidogenic factor 1 (Homo sapiens, UniProt Q13285); experiment: Counterscreen for inverse agonists of the liver receptor homolog-1 (LRH-1; NR5A2): Luminescence-based cell-based high throughput dose response assay to identify inverse agonists of the Steroidogenic Factor 1 Nuclear Receptor (SF1; NR5A1).; assay type: functional
[24] = StAR promoter reporter inhibition counter-screen, dose response, counter-screen for LRH-1 inverse agonist project, cell-based, luminescence, luciferase reporter (AID 651969); assay type: functional
[25] = A549 cell cytotoxicity, dose response, cytotoxicity control, plate reader, cherry-pick, antagonist series (AID 743412); assay type: functional, cell-based
[26] = HepG2 cell cytotoxicity, dose response, cytotoxicity control, plate reader, cherry-pick, antagonist series (AID 743416); assay type: functional, cell-based
[27] = inhibitors of HIV Env-driven cell fusion, dose response, cherry-pick (AID 652057); assay type: functional, cell-based
[28] = CEM21 lymphoblast cell cytotoxicity, dose response, cytotoxicity control for viral fusion inhibitor project, CellTiter-Glo luminescence, cherry-picked (AID 652042); assay type: functional, cell-based;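 also: potency for signal decrease meaning cytotoxicity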

Chain of Peroxisome proliferator-activated receptor gamma/Nuclear receptor coactivator 3 (P37231 whole entry): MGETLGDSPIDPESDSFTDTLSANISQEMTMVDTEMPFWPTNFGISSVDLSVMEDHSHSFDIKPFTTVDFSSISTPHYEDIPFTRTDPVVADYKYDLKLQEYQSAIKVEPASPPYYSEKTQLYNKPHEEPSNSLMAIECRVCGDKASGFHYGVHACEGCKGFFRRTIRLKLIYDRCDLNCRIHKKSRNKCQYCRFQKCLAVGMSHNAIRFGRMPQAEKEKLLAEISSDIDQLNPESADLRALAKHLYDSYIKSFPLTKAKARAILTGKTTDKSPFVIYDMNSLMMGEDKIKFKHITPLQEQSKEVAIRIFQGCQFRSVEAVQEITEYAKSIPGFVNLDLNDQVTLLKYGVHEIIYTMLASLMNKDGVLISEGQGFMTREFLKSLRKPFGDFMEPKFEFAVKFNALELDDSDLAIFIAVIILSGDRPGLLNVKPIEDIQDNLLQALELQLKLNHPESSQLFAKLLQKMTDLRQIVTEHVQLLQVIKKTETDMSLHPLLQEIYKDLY
Chain of Peroxisome proliferator-activated receptor gamma/Nuclear receptor coactivator 3 (Q9Y6Q9 whole entry, further chain): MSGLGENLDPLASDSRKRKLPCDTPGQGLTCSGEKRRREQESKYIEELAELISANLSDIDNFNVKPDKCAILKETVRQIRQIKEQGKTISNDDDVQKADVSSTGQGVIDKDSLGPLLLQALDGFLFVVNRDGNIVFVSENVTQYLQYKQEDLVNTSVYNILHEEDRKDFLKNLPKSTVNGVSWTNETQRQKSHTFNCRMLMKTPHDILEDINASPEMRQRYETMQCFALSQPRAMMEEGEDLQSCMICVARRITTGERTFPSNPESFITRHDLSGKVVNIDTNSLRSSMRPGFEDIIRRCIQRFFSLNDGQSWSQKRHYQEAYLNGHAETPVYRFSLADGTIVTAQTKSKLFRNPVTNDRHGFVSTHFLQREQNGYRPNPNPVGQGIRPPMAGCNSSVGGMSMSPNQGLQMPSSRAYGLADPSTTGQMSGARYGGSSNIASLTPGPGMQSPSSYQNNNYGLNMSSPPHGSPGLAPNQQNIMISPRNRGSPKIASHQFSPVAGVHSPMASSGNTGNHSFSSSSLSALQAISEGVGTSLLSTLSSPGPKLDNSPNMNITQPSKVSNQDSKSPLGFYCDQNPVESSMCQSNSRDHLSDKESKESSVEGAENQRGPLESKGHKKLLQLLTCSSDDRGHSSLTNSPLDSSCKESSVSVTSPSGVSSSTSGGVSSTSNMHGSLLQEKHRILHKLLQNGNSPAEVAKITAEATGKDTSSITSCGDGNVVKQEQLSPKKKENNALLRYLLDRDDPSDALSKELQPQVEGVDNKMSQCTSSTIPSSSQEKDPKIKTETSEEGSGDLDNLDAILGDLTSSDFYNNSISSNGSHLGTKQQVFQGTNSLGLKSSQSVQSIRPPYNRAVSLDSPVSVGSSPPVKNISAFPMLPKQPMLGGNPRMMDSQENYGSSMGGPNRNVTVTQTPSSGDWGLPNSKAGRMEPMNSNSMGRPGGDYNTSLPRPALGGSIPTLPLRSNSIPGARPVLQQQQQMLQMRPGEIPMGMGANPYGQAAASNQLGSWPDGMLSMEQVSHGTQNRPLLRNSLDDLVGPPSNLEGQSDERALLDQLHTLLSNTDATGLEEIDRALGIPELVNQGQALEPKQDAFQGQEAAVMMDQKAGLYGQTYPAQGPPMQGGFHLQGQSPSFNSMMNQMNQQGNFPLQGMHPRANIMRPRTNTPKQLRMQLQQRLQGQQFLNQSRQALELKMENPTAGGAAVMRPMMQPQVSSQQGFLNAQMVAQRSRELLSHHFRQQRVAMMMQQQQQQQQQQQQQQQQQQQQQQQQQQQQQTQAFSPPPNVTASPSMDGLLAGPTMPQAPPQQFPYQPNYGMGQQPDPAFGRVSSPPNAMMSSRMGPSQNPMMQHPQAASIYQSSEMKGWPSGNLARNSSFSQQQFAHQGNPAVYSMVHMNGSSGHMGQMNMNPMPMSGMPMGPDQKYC
Chain of Peroxisome proliferator-activated receptor gamma/Nuclear receptor coactivator 2 (P37231 whole entry): as the sequence (P37231 whole entry) above
Chain of Peroxisome proliferator-activated receptor gamma/Nuclear receptor coactivator 2 (Q15596 whole entry, further chain): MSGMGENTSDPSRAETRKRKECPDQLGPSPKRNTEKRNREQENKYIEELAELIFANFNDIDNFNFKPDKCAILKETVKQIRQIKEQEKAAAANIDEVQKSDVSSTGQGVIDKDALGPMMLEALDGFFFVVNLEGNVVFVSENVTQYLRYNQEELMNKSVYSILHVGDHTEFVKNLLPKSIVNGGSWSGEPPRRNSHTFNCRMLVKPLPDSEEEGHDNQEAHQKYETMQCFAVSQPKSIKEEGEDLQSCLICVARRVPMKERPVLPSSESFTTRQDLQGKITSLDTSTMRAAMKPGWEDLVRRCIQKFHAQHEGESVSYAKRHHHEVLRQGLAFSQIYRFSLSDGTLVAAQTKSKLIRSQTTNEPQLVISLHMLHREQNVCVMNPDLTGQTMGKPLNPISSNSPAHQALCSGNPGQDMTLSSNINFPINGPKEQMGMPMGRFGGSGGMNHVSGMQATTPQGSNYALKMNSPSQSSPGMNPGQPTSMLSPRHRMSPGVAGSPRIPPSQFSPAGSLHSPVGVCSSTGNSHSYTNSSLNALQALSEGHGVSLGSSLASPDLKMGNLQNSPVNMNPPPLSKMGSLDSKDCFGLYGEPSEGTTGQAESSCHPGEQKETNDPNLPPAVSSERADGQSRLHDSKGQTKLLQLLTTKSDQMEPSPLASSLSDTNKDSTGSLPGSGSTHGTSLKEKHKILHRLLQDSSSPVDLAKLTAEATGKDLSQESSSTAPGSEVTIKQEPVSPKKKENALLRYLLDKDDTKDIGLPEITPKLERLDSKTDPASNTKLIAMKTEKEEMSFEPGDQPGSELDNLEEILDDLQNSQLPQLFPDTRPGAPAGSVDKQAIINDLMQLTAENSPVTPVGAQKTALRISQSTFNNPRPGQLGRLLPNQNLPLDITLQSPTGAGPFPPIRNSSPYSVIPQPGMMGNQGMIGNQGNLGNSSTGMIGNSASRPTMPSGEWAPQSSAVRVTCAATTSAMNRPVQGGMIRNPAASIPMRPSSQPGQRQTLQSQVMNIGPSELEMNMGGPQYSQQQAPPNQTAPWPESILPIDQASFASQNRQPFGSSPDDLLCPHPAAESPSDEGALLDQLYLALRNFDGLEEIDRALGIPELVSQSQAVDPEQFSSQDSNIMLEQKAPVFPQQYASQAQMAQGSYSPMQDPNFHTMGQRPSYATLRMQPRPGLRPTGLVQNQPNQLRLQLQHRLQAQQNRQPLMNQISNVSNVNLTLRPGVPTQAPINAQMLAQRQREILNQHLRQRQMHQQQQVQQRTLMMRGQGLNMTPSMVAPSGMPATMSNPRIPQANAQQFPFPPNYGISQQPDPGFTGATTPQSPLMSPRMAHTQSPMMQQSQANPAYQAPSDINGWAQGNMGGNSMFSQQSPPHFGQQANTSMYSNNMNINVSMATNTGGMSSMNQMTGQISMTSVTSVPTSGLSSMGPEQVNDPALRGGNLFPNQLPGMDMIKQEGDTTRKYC
Chain of Endoplasmic reticulum aminopeptidase 1 (Q9NZ08 whole entry): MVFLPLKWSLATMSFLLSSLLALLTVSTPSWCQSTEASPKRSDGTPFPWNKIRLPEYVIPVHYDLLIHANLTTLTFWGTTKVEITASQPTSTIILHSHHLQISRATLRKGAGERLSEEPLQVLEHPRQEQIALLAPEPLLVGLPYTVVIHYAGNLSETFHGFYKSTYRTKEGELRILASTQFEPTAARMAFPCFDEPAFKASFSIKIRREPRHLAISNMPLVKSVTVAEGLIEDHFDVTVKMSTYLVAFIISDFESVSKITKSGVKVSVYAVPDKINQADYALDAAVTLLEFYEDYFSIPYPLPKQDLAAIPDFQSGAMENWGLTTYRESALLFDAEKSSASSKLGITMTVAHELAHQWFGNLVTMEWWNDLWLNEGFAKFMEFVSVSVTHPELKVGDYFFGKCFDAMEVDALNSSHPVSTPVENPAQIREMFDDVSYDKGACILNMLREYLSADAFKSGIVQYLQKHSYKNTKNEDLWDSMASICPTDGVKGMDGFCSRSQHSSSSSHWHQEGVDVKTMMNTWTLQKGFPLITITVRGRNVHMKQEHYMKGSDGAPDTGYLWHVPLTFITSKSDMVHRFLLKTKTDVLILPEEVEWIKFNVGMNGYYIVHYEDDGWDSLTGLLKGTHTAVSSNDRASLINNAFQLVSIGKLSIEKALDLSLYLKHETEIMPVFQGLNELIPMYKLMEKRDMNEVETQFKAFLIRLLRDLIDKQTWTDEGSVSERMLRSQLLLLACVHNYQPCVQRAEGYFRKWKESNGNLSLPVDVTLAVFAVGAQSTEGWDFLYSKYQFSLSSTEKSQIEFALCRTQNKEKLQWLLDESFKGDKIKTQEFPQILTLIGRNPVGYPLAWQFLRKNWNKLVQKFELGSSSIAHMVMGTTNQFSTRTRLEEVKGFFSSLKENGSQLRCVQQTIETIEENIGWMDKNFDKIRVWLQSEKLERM
Chain of DNA dC->dU-editing enzyme APOBEC-3A (P31941 whole entry): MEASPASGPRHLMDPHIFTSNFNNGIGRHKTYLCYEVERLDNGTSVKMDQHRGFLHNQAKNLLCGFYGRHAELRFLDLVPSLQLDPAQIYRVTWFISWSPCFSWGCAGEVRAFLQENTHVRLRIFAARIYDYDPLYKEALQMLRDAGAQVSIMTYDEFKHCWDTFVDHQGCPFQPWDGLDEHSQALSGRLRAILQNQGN

With `C[C@@H]1CN([C@H](C)CO)C(=O)c2ccccc2-c2ccccc2CO[C@@H]1CN(C)Cc1cccc2c1OCCCO2` the AC50 [1] was 12.3 µM (active).

For `O=C(NCc1ccccn1)[C@@H]1[C@@H](CO)[C@@H]2Cn3c(ccc(/C=C/c4ccccc4)c3=O)[C@H]1N2CC1CC1`, the AC50 [2] was 7.58 µM (active).

In the case of `Cc1ccccc1C(=O)Nc1nnc(-c2ccco2)s1`, the EC50 [3] was > 79.4 µM (inactive), the EC50 [4] was > 79.4 µM (not active) and the EC50 [5] was > 26.5 µM (not active). The AC50 [6] was 4.84 µM (active) and the AC50 [7] was 8.18 µM (active).

For `CC1(C)CC(N2CCCCC2)=CC(=[N+]2CCCCC2)C1`, the EC50 [8] was 0.369 µM (active), the EC50 [9] was 21.5 µM (active) and the IC50 [10] was 2.2 µM (active). The IC50 [11] was 4.57 µM (active), the IC50 (Galanin receptor type 3) was 3.67 µM (active) and the EC50 (cells [12]) was > 29.9 µM (inactive).

With `CC(/C=N/NC(=O)c1ccc(Br)cc1)=C\c1ccccc1` the IC50 [13] was 17.2 µM (active) and the IC50 [14] was 28.5 µM (inactive).

In the case of `Nc1cnn(C2OC(CO)C(O)C2O)c(=O)n1` (stereo not drawn), the CC50 [15] was 5.98 µM (active), the EC50 [16] was 14.3 µM (active) and the EC50 [17] was > 120 µM (not active). The EC50 [18] was 14.7 µM (active), the IC50 (Vero) was 11.8 µM (active) and the IC50 (cells [19]) was > 67.5 µM (inactive). For the same compound, the IC50 [20] was > 22.5 µM (inactive) and the IC50 (cells [21]) was 1.91 µM (active).

In the case of `Cc1c(Cl)cccc1NC(=O)CS(=O)(=O)c1ccccc1`, the EC50 [22] was > 195 µM (not active), the IC50 [23] was 3.98 µM (active) and the IC50 (Steroidogenic factor 1) was 9.39 µM (active). For the same compound, the IC50 [24] was 35.8 µM (inactive).

With `COc1ccc2oc(-c3ccccc3)cc(=O)c2c1` [6-METHOXYFLAVONE] the AC50 [25] was > 52 µM (inactive), the AC50 [26] was > 52 µM (inactive) and the AC50 [6] was 5.46 µM (active). For the same compound, the AC50 [7] was 6.5 µM (active).

For `COCCCNC(=O)c1sc2ncnc(N3CCc4ccccc4C3)c2c1C`, the AC50 [27] was 3.98 µM (active) and the AC50 [28] was 6.66 µM (active).
